Consider 34 molecules from patent publication US9890152B2 (Genentech, Inc., priority 2012, dated 2018).

Each structure is given as a SMILES string.

T1 sequence (P00533 with tags, fused parts or gaps DEL746-750/T790M limits assumed): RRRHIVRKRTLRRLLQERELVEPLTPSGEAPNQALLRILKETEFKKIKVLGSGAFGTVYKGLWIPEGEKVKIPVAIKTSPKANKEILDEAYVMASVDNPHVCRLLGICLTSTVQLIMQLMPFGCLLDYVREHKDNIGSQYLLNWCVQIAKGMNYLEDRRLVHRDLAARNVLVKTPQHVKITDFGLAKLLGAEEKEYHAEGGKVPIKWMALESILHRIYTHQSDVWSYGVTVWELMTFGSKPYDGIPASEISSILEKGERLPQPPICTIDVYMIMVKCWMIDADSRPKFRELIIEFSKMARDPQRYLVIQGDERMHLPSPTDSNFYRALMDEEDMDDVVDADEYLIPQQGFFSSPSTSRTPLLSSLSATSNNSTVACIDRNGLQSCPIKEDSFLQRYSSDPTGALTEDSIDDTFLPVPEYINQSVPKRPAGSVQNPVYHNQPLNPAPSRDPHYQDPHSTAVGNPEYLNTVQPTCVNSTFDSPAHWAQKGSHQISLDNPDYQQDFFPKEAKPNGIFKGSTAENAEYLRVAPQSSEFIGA

The assay has as its target T1, EGFR del746-750 T790M (Homo sapiens, UniProt P00533, DEL746-750/T790M).
T1 construct: purchased Carna Biosciences 08-528
Put plainly: EGFR del746-750 T790M biochemical assay (Caliper mobility shift). The conditions noted are these: 5 μM ATP, 30 min, room temperature; apparent Ki (Morrison) converted by Cheng-Prusoff, Km of ATP 2.1 μM; read-out: EGFR(T790M/d746-750) Ki.
Consider `CO[C@@H]1CCN(c2nccc(Nc3cc4c(cn3)c(C(=O)NC3CCOCC3)cn4C(C)C)n2)C[C@@H]1F` [Example 380, 6-((2-((3S,4R)-3-fluoro-4-methoxypiperidin-1-yl)pyrimidin-4-yl)amino)-1-isopropyl-N-(tetrahydro-2H-pyran-4-yl)-1H-pyrrolo [3,2-c]pyridine-3-carboxamide], for which the Ki came to 6.96 nM.
Turning to `CO[C@@H]1CCN(c2nccc(Nc3cc4c(cn3)nc([C@@H](C)O)n4[C@@H](C)C(F)(F)F)n2)C[C@@H]1F` [Example 290, (R)-1-[6-[2-((3S,4R)-3-Fluoro-4-methoxypiperidin-1-yl)-pyrimidin-4-ylamino]-1-((S)-2,2,2-trifluoro-1-methylethyl)-1H-imidazo[4,5-c]pyridin-2-yl]ethanol], the Ki was 4.65 nM.
Then `C[C@H](n1c([C@@H](C)O)nc2cnc(Nc3ccnc(N4CCC(S(C)(=O)=O)CC4)n3)cc21)C(F)(F)F` [Example 662], with 68.4 nM; and `COC1CCN(c2nccc(Nc3cc4c(cn3)c(-c3cnn(CC(N)=O)c3)cn4C(C)C)n2)CC1` [Example 410, 2-(4-(1-isopropyl-6-((2-(4-methoxypiperidin-1-yl)pyrimidin-4-yl)amino)-1H-pyrrolo[3,2-c]pyridin-3-yl)-1H-pyrazol-1-yl)acetamide], with 4.86 nM.
With `CC(C)n1c(CO)nc2cnc(Nc3ccnc(N4CC[C@@](C)(O)[C@H](F)C4)n3)cc21` [Example 675] the figure was 112 nM; with `CC(C)n1c(CO)nc2cnc(Nc3ccnc(N4CC[C@H]([S+](C)[O-])[C@H](F)C4)n3)cc21` (relative stereo) [Example 623, {6-[2-(cis-3-Fluoro-4-methanesulfinylpiperidin-1-yl)pyrimidin-4-ylamino]-1-isopropyl-1H-imidazo[4,5-c]pyridin-2-yl}methanol], 393 nM; with `CO[C@H]1CCN(c2nccc(Nc3cc4c(cn3)nc([C@H](C)O)n4[C@@H](C)C(F)(F)F)n2)C[C@H]1F` [Example 684], 7.67 nM.
As for `CC(C)n1cnc2cnc(Nc3ccnc(N4CCCC(C(N)=O)C4)n3)cc21` (stereo not shown) [Example 66, 1-(4-(1-isopropyl-1H-imidazo[4,5-c]pyridin-6-ylamino)pyrimidin-2-yl)piperidine-3-carboxamide], the Ki was 138 nM.
With `CC(C)n1cc(-c2cn3c(n2)CNCC3)c2cnc(Nc3ccnc(-c4cnn(S(=O)(=O)C5CC5)c4)n3)cc21` [Example 442, N-(2-(1-(cyclopropylsulfonyl)-1H-pyrazol-4-yl)pyrimidin-4-yl)-1-isopropyl-3-(5,6,7,8-tetrahydroimidazo[1,2-a]pyrazin-2-yl)-1H-pyrrolo[3,2-c]pyridin-6-amine] the figure was 0.81 nM.
`Cc1nc2cnc(Nc3ccnc(N4CC[C@@](C)(O)[C@H](F)C4)n3)cc2n1C(C)C` [Example 674]: the Ki was 73 nM.
For `Cc1nc2cnc(Nc3ccnc(N4CC[C@@H](F)C4)n3)cc2n1C(C)C` [Example 593, [2-((R)-3-Fluoropyrrolidin-1-yl)pyrimidin-4-yl]-(1-isopropyl-2-methyl-1H-imidazo[4,5-c]pyridin-6-yl)amine], the Ki is 118 nM.
Consider `CO[C@@H]1CCN(c2nccc(Nc3cc4c(cn3)nc(CO)n4C(C)C)n2)C[C@H]1C` [Example 699], for which the Ki turned out to be 305 nM.
In the case of `CC(C)n1c(CO)nc2cnc(Nc3ccnc(N4CC[C@@H](O)[C@H](C)C4)n3)cc21` (racemic) [Example 630, (±)-(trans)-1-(4-(2-(Hydroxymethyl)-1-isopropyl-1H-imidazo[4,5-c]pyridin-6-ylamino)pyrimidin-2-yl)-3-methylpiperidin-4-ol], the Ki amounted to 202 nM.
With `COC1CCN(c2nccc(Nc3cc4c(cn3)nc(C)n4C(C)C)n2)CC1(F)F` (racemic) [Example 528, (±)-[2-(3,3-Difluoro-4-methoxypiperidin-1-yl)pyrimidin-4-yl](1-isopropyl-2-methyl-1H-imidazo[4,5-c]pyridin-6-yl)amine] the figure was 43.3 nM.
For `CC(C)n1c(CO)nc2cnc(Nc3ccnc(N4CC[C@H](O)[C@H](C(F)(F)F)C4)n3)cc21` (racemic) [Example 626, (±)-(cis)-1-(4-(2-(Hydroxymethyl)-1-isopropyl-1H-imidazo[4,5-c]pyridin-6-ylamino)pyrimidin-2-yl)-3-(trifluoromethyl)piperidin-4-ol], the Ki is 1250 nM.
Then `CCN1CCN(C(=O)c2cn(C(C)C)c3cc(Nc4ccnc(N5CCC(OC)CC5)n4)ncc23)CC1` [Example 122, (4-ethylpiperazin-1-yl)(1-isopropyl-6-((2-(4-methoxypiperidin-1-yl)pyrimidin-4-yl)amino)-1H-pyrrolo[3,2-c]pyridin-3-yl)methanone], with 100 nM.
With `CNc1nc2cnc(Nc3ccnc(N4CCC(OC)CC4)n3)cc2n1C(C)C` [Example 6, 1-Isopropyl-N^6-[2-(4-methoxypiperidin-1-yl)pyrimidin-4-yl]-N^2-methyl-1H-imidazo[4,5-c]pyridine-2,6-diamine] the figure was 63.3 nM.
On to `Cc1c(-c2cn(C(C)C)c3cc(Nc4ccnc(-c5cnn(S(=O)(=O)C6CC6)c5)n4)ncc23)cnn1CCO` [Example 438, 2-(4-(6-(2-(1-(cyclopropylsulfonyl)-1H-pyrazol-4-yl)pyrimidin-4-ylamino)-1-isopropyl-1H-pyrrolo[3,2-c]pyridin-3-yl)-5-methyl-1H-pyrazol-1-yl)ethanol], for which the Ki was determined as 1.06 nM.
As for `CO[C@H]1CCN(c2nccc(Nc3cc4c(cn3)nc(C)n4C(C)C)n2)C[C@H]1F` (racemic) [Example 608, [2-((3RS,4SR)-3-Fluoro-4-methoxypiperidin-1-yl)pyrimidin-4-yl]-(1-isopropyl-2-methyl-1H-imidazo[4,5-c]pyridin-6-yl)amine], the Ki came to 48.3 nM.
With `CC(C)n1cc(-c2cnn(C3COC3)c2)c2cnc(Nc3ccnc(-c4cnn(S(=O)(=O)C5CC5)c4)n3)cc21` [Example 441, N-(2-(1-(cyclopropylsulfonyl)-1H-pyrazol-4-yl)pyrimidin-4-yl)-1-isopropyl-3-(1-(oxetan-3-yl)-1H-pyrazol-4-yl)-1H-pyrrolo[3,2-c]pyridin-6-amine] the figure was 0.8 nM.
Turning to `Cc1nc2cnc(Nc3ccnc(N4Cc5cn[nH]c5C(C)(C)C4)n3)cc2n1C(C)C` [Example 111, N-(2-(7,7-dimethyl-6,7-dihydro-1H-pyrazolo[4,3-c]pyridin-5(4H)-yl)pyrimidin-4-yl)-1-isopropyl-2-methyl-1H-imidazo[4,5-c]pyridin-6-amine], the Ki was found to be 18.9 nM.
With `Cc1nc2cnc(Nc3ccnc(-c4cnoc4)n3)cc2n1C(C)C` [Example 366] the figure was 14.7 nM; with `CCC(C)n1cc(C(=O)NC2CCOCC2)c2cnc(Nc3ccnc(N4CC[C@@H](O)[C@@H](F)C4)n3)cc21` (single isomer, unassigned) [Example 323], 3.41 nM; with `CO[C@H]1CCN(c2nccc(Nc3cc4c(cn3)c(C(=O)NC3CCOCC3)cn4C(C)C)n2)C[C@H]1F` [Example 381, 6-((2-((3R,4S)-3-fluoro-4-methoxypiperidin-1-yl)pyrimidin-4-yl)amino)-1-isopropyl-N-(tetrahydro-2H-pyran-4-yl)-1H-pyrrolo [3,2-c]pyridine-3-carboxamide], 9.29 nM.
With `CC(C)n1c(CO)nc2cnc(Nc3ccnc(N4CCC(O)(C(F)(F)F)CC4)n3)cc21` [Example 669] the figure was 234 nM; with `C[C@H](O)c1nc2cnc(Nc3ccnc(N4CC[C@@H](O)[C@@H](F)C4)n3)cc2n1[C@@H](C)C(F)(F)F` [Example 685], 26.6 nM; with `COC[C@H](C)n1c(C)nc2cnc(Nc3ccnc(N4CCC(OC)CC4)n3)cc21` [Example 490, [1-((S)-2-Methoxy-1-methylethyl)-2-methyl-1H-imidazo [4,5-c]pyridin-6-yl]-[2-(4-methoxypiperidin-1-yl)pyrimidin-4-yl]amine], 746 nM.
With `COC1(CO)CCN(c2nccc(Nc3cc4c(cn3)nc([C@@H](C)O)n4[C@@H](C)C(F)(F)F)n2)CC1` [Example 665] the figure was 11.5 nM; with `Cc1cc(-c2cn(C(C)C)c3cc(Nc4ccnc(-c5cnn(S(=O)(=O)C6CC6)c5)n4)ncc23)nn1CCO` [Example 435, 2-(3-(6-(2-(1-(cyclopropylsulfonyl)-1H-pyrazol-4-yl)pyrimidin-4-ylamino)-1-isopropyl-1H-pyrrolo[3,2-c]pyridin-3-yl)-5-methyl-1H-pyrazol-1-yl)ethanol], 2.36 nM.
As to `COC1CCN(c2nccc(Nc3cc4c(cn3)nc([C@@H](C)O)n4[C@H](C)C(F)(F)F)n2)CC1F` (mixture of isomers) [Example 297, (R)-1-[6-[2-(cis-3-Fluoro-4-methoxypiperidin-1-yl)pyrimidin-4-ylamino]-1-((R)-2,2,2-trifluoro-1-methylethyl)-1H-imidazo[4,5-c]pyridin-2-yl]ethanol], the Ki amounted to 40 nM.
As for `Cc1nc2cnc(Nc3ccnc(NCC(C)(C)S(C)(=O)=O)n3)cc2n1C(C)C` [Example 499, N^4-(1-Isopropyl-2-methyl-1H-imidazo[4,5-c]pyridin-6-yl)-N2-(2-methyl-2-(methylsulfonyl)propyl) pyrimidine-2,4-diamine], the Ki turned out to be 51.7 nM.
With `Cc1nc2cnc(Nc3ccnc(N4CCC(OC(F)F)CC4)n3)cc2n1C(C)C` [Example 549, [2-(4-Difluoromethoxypiperidin-1-yl)pyrimidin-4-yl]-(1-isopropyl-2-methyl-1H-imidazo[4,5-c]pyridin-6-yl)amine] the figure was 143 nM.
With `COC1CCN(c2nccc(Nc3cc4c(cn3)nc(C)n4C(C)C3CC3)n2)CC1` (stereo not shown) [Example 268, [1-(1-Cyclopropylethyl)-2-methyl-1H-imidazo[4,5-c]pyridin-6-yl]-[2-(4-methoxypiperidin-1-yl)pyrimidin-4-yl]amine] the figure was 6.88 nM; with `CC(C)n1cc(C(=O)NC2CCSCC2)c2cnc(Nc3ccnc(-c4cnn(S(=O)(=O)C5CC5)c4)n3)cc21` [Example 458, 6-(2-(1-(cyclopropylsulfonyl)-1H-pyrazol-4-yl)pyrimidin-4-ylamino)-1-isopropyl-N-(tetrahydro-2H-thiopyran-4-yl)-1H-pyrrolo[3,2-c]pyridine-3-carboxamide], 1.35 nM.
